Article PMC3115942 (PLoS ONE, 2011)
Where two headings read alike, the source gives them in different places.

Tests used:
AMPK(r) = experiment: Millipore kinaseprofiler diversity array; assay type: biochemical, rat; conditions: 10 µM MS-0022
Method: Table 4 Kinase activity in presence of 10 µM MS-0022 in a kinaseprofiler diversity array. | column: Activity %

[1] = Pharmacokinetics in mouse plasma; assay type: in vivo; conditions: 5 mg/kg; for Cmax / AUC(0-inf) / AUC(0-t) / half-life / k el: mouse plasma; for concentration at 5 min / concentration at 15 min / concentration at 30 min / concentration at 60 min / concentration at 120 min / concentration at 240 min: read-out: blood concentration
Method: For pharmacokinetic (PK) analysis, 5 mg/kg MS-0022 was given by IV, PO and IP administration to 7–8 week old male C57BL mice (mouse musculus), and blood was collected after 5, 15, 30, 60, 120, and 240 min, with n = 3. Animals were sacrificed and blood samples (∼0.5 mL each) were collected from the abdominal aorta into EDTA-containing tubes, centrifuged (2–8°C for ∼10 minutes at ∼10000 xg) and plasma harvested into single tubes for each animal and frozen (∼−70°C). Blood samples were analyzed by ChemDiv^'s bioanalytical department. The maximum concentration (Cmax), total drug exposure (the area under the curve to the last quantifiable concentration (AUClast) and as the AUClast value extrapolated to infinity (AUCinf), calculated as AUCinf = AUClast+C(t)last/Kel, where C(t)last is the last measurable concentration), half-life (T1/2) calculated as ln(2)/Kel and Kel calculated as the slope of the terminal linear portion of the concentration/time curve. The WinNonlin Professional 5.2 software (Pharsight Corp.) was used for the calculation of the PK parameters.

[2] = system: Gli1 mRNA expression in Ptch−/− MEF; experiment: Real time PCR of Gli1 mRNA in Ptch−/− MEF; assay type: cell-based, mouse; conditions: 5 µM, 48 hours
Method: Cells were lysed for RNA extraction after 48 or 72 hours of treatment. Total RNA from cultured cells or tumor tissue was isolated using the GeneElute miniprep kit (Sigma-Aldritch) following the manufacturer^'s instructions. cDNA was synthesized from the isolated mRNA using the Retroscript kit (Ambion), and real-time PCR was carried out using the SYBR Green PCR master mix (Stratagene) according to the manufacturer^'s instructions with an Mx3000P cycler (Stratagene). The relative concentrations of cDNA present in each sample were calculated by the MxPro software (Stratagene), normalized for GAPDH (mRNA from cells) or GUS (mRNA from tumors). For real time PCR primer sequences see Table 6. For the tumor tissue real time PCR, previously described human and mouse specific primers against GUSB, PTCH1 and GLI1were used.

PANC-1 cells = experiment: In vitro antiproliferative assay (MTS), PANC-1; assay type: cell-based, human; conditions: 5 µM, 4 day
Method: (§1) Cells were plated at a density of 3000 (THLE-2 and PC-3) and 1000 (PANC-1, SUIT-2 and FEMX) cells per well (on the basis of their growth rate) in 200 µl of medium in a 96-well plate. Medium was changed daily, and after four days, the assay was read using a MTS kit (Promega) according to the instructions of the manufacturer. Graphs display average of percent growth with standard deviation (n = 8).

[3] = system: ciliary accumulation of Smo in Ptch−/− MEF; experiment: Immunostaining of Smo in primary cilia of Ptch−/− MEF; assay type: cell-based, mouse; conditions: 5 µM, 24 hours
Method: PTCH−/− MEF were seeded on pre-coated glass slides (1 hour coating with 0.1% Gelatin (G1393) and 0.003% Collagen (C8919) (Sigma-Aldrich) in PBS). 80% confluent cells were switched from 10% to 0.5% FBS in medium and cells were treated with DMSO or 5 µM MS-0022 for 24 hours in (n = 3) before subsequent immunofluorescent staining: Slides were fixed with 4% paraformaldehyde (Sigma-Aldrich), permeabilized for 10 min in 0.1% v/v Triton X-100 (Sigma-Aldrich) in PBS (PBT), and blocked with 10% w/v BSA (Saveen Werner) in PBT for 1 hour. Primary antibodies, mouse anti-acetylated tubulin (a-Tub) (Sigma-Aldrich (T7451), 1∶1000) goat anti-Smo (Santa Cruz Biotechnology (sc-6367), 1∶1000), and goat anti-GLI-1 (RnD systems (AF3455), 1∶500) were diluted in 0.5% w/v BSA in PBT and left on the slides over night at 4°C. Secondary antibodies donkey anti-goat IgG-Alexa 594 and donkey anti-mouse IgG-Alexa 488 (Invitrogen, both at 1∶500) were added in 0.5% w/v BSA in PBT for 1 hour. The slides were counterstained with DAPI (Roche, 1 mg/ml) in PBS. 3 random regions were imaged pr slide using a confocal LSM510 microscope (Carl Zeiss MicroImaging). The ratio of […] positive cilia was quantified manually or processed and analyzed using ImageJ to quantify the intensity of Smo and aTub for each cilium in the images (http://rsb.info.nih.goc/ij/). […]

THLE-2 cells = experiment: Passage growth assay, THLE-2; assay type: cell-based; conditions: 5 µM
Method: 20,000 cells were seeded per well in 6 well plates (triplicates) with DMSO or 5 µM MS-0022. Treatment medium was changed on day 3–5, and after 5–7 days the cells were trypsinized, re-suspended in medium and counted, before reseeding cells at 20,000/well for a subsequent passage. The average growth of MS-0022 treated cells was calculated as a percentage of the growth of the DMSO control at the end of each passage. Graphs display average of percent growth with standard deviation bars (n = 3).

PC-3 cells = experiment: In vitro antiproliferative assay (MTS), PC-3; assay type: cell-based, human; conditions: 4 day
Method: as §1

SUIT-2 xenograft = experiment: SUIT-2 subcutaneous xenograft in CB17/SCID mice; assay type: in vivo
[4] = 50 mg/kg daily PO, 18 days, vs control group

For `Cc1cccn2cc(-c3ccc(NC(=O)c4ccccc4Br)cc3)nc12` [MS-0022, 2-bromo-N-(4-(8-methylimidazo[1,2-a]pyridin-2-yl)phenyl)benzamide], the Activity % (AMPK(r)) was 98%, the Cmax ([1]; male, C57BL, mouse, plasma, ip, IP, read-out: Cmax) was 378 ng/mL and the Cmax ([1]; male, C57BL, mouse, plasma, iv, IV, read-out: Cmax) was 934 ng/mL. For the same molecule, the Cmax ([1]; male, C57BL, mouse, plasma, po, PO, read-out: Cmax) was 912 ng/mL, the concentration at 5 min ([1]; male, C57BL, mouse, plasma, IP) was 30 ng/mL and the concentration at 15 min ([1]; male, C57BL, mouse, plasma, IP) was 261 ng/mL. The concentration at 30 min ([1]; male, C57BL, mouse, plasma, IP) was 378 ng/mL, the concentration at 60 min ([1]; male, C57BL, mouse, plasma, IP) was 158 ng/mL and the concentration at 120 min ([1]; male, C57BL, mouse, plasma, IP) was 56 ng/mL. It also gave a concentration at 240 min ([1]; male, C57BL, mouse, plasma, IP) of 15 ng/mL, a concentration at 5 min ([1]; male, C57BL, mouse, plasma, IV) of 934 ng/mL and a concentration at 15 min ([1]; male, C57BL, mouse, plasma, IV) of 712 ng/mL. For the same molecule, the concentration at 30 min ([1]; male, C57BL, mouse, plasma, IV) was 626 ng/mL, the concentration at 60 min ([1]; male, C57BL, mouse, plasma, IV) was 620 ng/mL and the concentration at 120 min ([1]; male, C57BL, mouse, plasma, IV) was 253 ng/mL. For the same molecule, the concentration at 240 min ([1]; male, C57BL, mouse, plasma, IV) was 73 ng/mL, the concentration at 5 min ([1]; male, C57BL, mouse, plasma, PO) was 468 ng/mL and the concentration at 15 min ([1]; male, C57BL, mouse, plasma, PO) was 912 ng/mL. The concentration at 30 min ([1]; male, C57BL, mouse, plasma, PO) was 461 ng/mL, the concentration at 60 min ([1]; male, C57BL, mouse, plasma, PO) was 437 ng/mL and the concentration at 120 min ([1]; male, C57BL, mouse, plasma, PO) was 180 ng/mL. For the same molecule, the concentration at 240 min ([1]; male, C57BL, mouse, plasma, PO) was 51 ng/mL, the bioavailability ([1]; male, C57BL, plasma, po, mouse, read-out: Per oral bioavailability) was 98% and the AUC(0-inf) ([1]; male, C57BL, IP) was 437 ng·h/mL. The AUC(0-t) ([1]; male, C57BL, IP) was 417 ng·h/mL, the half-life ([1]; male, C57BL, IP) was 54.8 min and the k el ([1]; male, C57BL, IP) was 0.00021 s⁻¹. It also gave an AUC(0-inf) ([1]; male, C57BL, IV) of 1560 ng·h/mL, an AUC(0-t) ([1]; male, C57BL, IV) of 1460 ng·h/mL and a half-life ([1]; male, C57BL, IV) of 59.3 min. For the same molecule, the k el ([1]; male, C57BL, IV) was 0.000195 s⁻¹, the AUC(0-inf) ([1]; male, C57BL, PO) was 1140 ng·h/mL and the AUC(0-t) ([1]; male, C57BL, PO) was 1070 ng·h/mL. For the same molecule, the half-life ([1]; male, C57BL, PO) was 59.1 min, the k el ([1]; male, C57BL, PO) was 0.000195 s⁻¹ and the Cmax ([1]; IP) was 377.7 ng/mL. The Cmax ([1]; IV) was 934.3 ng/mL, the “Gli1 mRNA expression in Ptch−/− MEFs” value [2] was “reduced Gli1 mRNA expression” and the “growth (MTS), PANC-1” value (PANC-1 cells) was “reduced growth”. For the same molecule, the “ciliary accumulation of Smo” value [3] was “effectively blocked ciliary accumulation of Smo”, the “growth by the second passage, THLE-2” value (THLE-2 cells) was “not affected” and the “growth (MTS), PC-3” value (PC-3 cells) was “growth was only reduced by MS-0022”. The “animal weight, SUIT-2 xenograft mice” value (SUIT-2 xenograft; 50 mg/kg daily PO) was “unaffected”, the “outwards signs of toxicity, SUIT-2 xenograft mice” value (SUIT-2 xenograft; 50 mg/kg daily PO) was “did not result in any outwards signs of toxicity” and the “reduction in tumor volume, SUIT-2 xenograft” value (SUIT-2 xenograft; [4]) was 27%. For the same molecule, the “reduction in tumor weight, SUIT-2 xenograft” value (SUIT-2 xenograft; [4]) was 36%, the “mouse (stromal) Gli1 mRNA in SUIT-2 tumors” value (SUIT-2 xenograft; after 7 days of treatment, 50 mg/kg PO, 50 mg/kg) was “reduced significantly” and the “human or mouse Gli1, or Ptch1 mRNA levels in SUIT-2 tumors” value (SUIT-2 xenograft; endpoint of the experiment (18 days), 50 mg/kg PO) was “no statistical relevant reduction”.
